These results are taken from ChEMBL document CHEMBL3526103, “Prediction of in vivo hepatic clearance and half-life of drug candidates in human using chimeric mice with humanized liver” (Drug Metab Dispos, 2012).

Each structure is given as a SMILES string.

Data set [1] in a line: Intrinsic clearance in human hepatocytes from chimeric mouse with humanized liver assessed per 10^6 cells at 10 uM after 0.25 to 2 hrs by LC-MS/MS method. In kind it is ADME, cell-based, Hepatocyte. The note with it: read-out: CLH.
The nature of data set [2]: Unbound fraction in po dosed human plasma. In kind it is ADME, organism-based.
The nature of data set [3]: Ratio of drug level in blood to plasma in po dosed human. In kind it is ADME, organism-based. The note with it: blood and plasma, read-out: Rblood_plasma.
Data set [4] is described as follows: in vivo. Particulars: mouse, iv, 3 mg/kg.
A short description of data set [5]: Oral clearance in po dosed human. Particulars: in vivo. In kind it is ADME, organism-based.
The nature of data set [6]: Total clearance in chimeric mouse with humanized liver at 3 mg/kg, iv by LC-MS/MS method. In kind it is ADME, organism-based. Further details: dose 3 mg/kg, route intravenous. Particulars: in vivo.
Data set [7] is described as follows: Total clearance in chimeric mouse with humanized liver at 0.3 mg/kg, iv by LC-MS/MS method. The note with it: in vivo. In kind it is ADME, organism-based. Further details: dose 0.3 mg/kg, route intravenous.
The nature of data set [8]: clinical. Particulars: human, in vivo, iv.
Description: Total clearance in iv dosed human
Data set [9] can be described thus: Unbound fraction in iv dosed human plasma. In kind it is ADME, organism-based.

The fraction unbound is free concentration divided by total concentration. Low readings indicate extensive binding, high ones weak binding. A word on the half-life: it is the time needed for the level to fall by half in the phase considered. High values mean slow decline, low ones rapid decline. The term CL/F denotes clearance divided by bioavailability, as obtained after extravascular dosing. One may read the clearance as the volume of plasma or blood freed of the substance per unit of time. Read a high clearance as efficient removal. Regarding `CC1=C(CC(=O)O)c2cc(F)ccc2/C1=C\c1ccc([S+](C)[O-])cc1` (stereo not drawn), the hepatocyte CLint at 10 µM in data set [1] was 2 µL/min/1e6 cells. The same compound gave a fraction unbound in data set [2] of 0.069. In addition, the blood plasma ratio in data set [3] was found to be 1. Further, in data set [4], the half-life is 72 min. Further, in data set [5], the CL/F turned out to be 3.3 mL/min/kg. For the same compound, the clearance in [6] is 5.6 mL/min/kg.

In the case of `CC(=O)C[C@@H](c1ccccc1)c1c(O)c2ccccc2oc1=O`, in data set [1], the hepatocyte CLint at 10 µM was 1.2 µL/min/1e6 cells. In addition, the clearance in data set [7] worked out at 0.2 mL/min/kg; in [8], 0.055 mL/min/kg. Further, the fraction unbound in data set [9] was 0.015.

Turning to `Nc1ncc2ncn(CCC(CO)CO)c2n1` [6-DEOXY PENCICLOVIR], the hepatocyte CLint at 10 µM in data set [1] stood at 5.3 µL/min/1e6 cells. Also, the fraction unbound in data set [2] is 1. In addition, the blood plasma ratio in data set [3] is 1.2. This compound showed a half-life in data set [4] of 6 min. In [5], the CL/F was 118 mL/min/kg. In data set [6], this compound had a clearance of 71.2 mL/min/kg.

For `CC(C)(C)NCC(O)c1ccc(O)c(CO)c1` (stereo not drawn) [ALBUTEROL], the unbound share (fraction unbound) in data set [9] was found to be 0.925.

Regarding `Nc1ccc(S(=O)(=O)c2ccc(N)cc2)cc1` [DAPSONE], the hepatocyte CLint at 10 µM in data set [1] turned out to be 2.3 µL/min/1e6 cells. The same compound registered a clearance in data set [6] of 2.1 mL/min/kg.

For the compound `O=C(O)Cc1ccccc1Nc1c(Cl)cccc1Cl` [DICLOFENAC], the hepatocyte CLint at 10 µM in [1] is 24.7 µL/min/1e6 cells. The same compound gave a half-life in [4] of 36 min. The clearance in data set [6] is 16.4 mL/min/kg.

Regarding `O=S(=O)(c1cccc2cnccc12)N1CCCNCC1` [FASUDIL], the fraction unbound in data set [9] stood at 0.51.

With `Nc1nnc(-c2cccc(Cl)c2Cl)c(N)n1` [LAMOTRIGINE], the hepatocyte CLint at 10 µM in [1] worked out at 1.4 µL/min/1e6 cells. In data set [2], this compound had a fraction unbound of 0.45. In addition, in data set [3], the blood plasma ratio came to 1. The compound further gave a half-life in [4] of 606 min. In [5], the CL/F was determined as 0.3 mL/min/kg. In addition, in data set [6], the clearance stood at 1.4 mL/min/kg.

For the compound `CN1CCN2c3ncccc3Cc3ccccc3C2C1` (stereo not drawn) [MIRTAZAPINE], the hepatocyte CLint at 10 µM in [1] stood at 6.3 µL/min/1e6 cells. The compound further came in with a clearance in data set [6] of 30.4 mL/min/kg.

Consider `CCN(C(C)=O)c1cccc(-c2ccnc3c(C#N)cnn23)c1` [ZALEPLON], for which the hepatocyte CLint at 10 µM in data set [1] worked out at 2.3 µL/min/1e6 cells. In data set [6], this compound yielded a clearance of 48.1 mL/min/kg.
